Experimental data published in article PMC12155096 (International Journal of Molecular Sciences, 2025).
Counter-ions that a name gives are not always drawn. Like-named read-outs stand apart in the source and are kept apart here.

What was measured:
[1] = molecular target: Photinus pyralis (firefly) luciferase (Photinus pyralis, UniProt P08659); experiment: biochemical; format: biochemical
human CYP1A2 [2] = molecular target: T1, human CYP1A2 (Homo sapiens, UniProt P05177); experiment: biochemical
T1 sequence (P05177 1-516): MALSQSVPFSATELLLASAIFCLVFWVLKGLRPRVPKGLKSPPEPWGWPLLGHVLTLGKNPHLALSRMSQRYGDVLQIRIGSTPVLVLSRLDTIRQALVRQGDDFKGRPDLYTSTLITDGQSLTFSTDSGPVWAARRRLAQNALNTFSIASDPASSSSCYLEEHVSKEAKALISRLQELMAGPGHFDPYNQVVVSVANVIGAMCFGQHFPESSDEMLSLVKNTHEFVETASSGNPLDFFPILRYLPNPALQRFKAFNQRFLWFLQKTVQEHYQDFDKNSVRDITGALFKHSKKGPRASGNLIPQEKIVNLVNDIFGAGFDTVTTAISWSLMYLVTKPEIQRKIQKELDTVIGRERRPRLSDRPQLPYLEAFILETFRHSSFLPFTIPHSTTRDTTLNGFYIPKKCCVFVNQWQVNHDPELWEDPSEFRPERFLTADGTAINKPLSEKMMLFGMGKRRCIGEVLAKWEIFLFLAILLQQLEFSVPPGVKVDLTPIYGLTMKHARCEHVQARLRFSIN

human CYP2C9 [3] = molecular target: T2, human CYP2C9 (Homo sapiens, UniProt P11712); experiment: biochemical
T2 sequence (P11712 whole entry): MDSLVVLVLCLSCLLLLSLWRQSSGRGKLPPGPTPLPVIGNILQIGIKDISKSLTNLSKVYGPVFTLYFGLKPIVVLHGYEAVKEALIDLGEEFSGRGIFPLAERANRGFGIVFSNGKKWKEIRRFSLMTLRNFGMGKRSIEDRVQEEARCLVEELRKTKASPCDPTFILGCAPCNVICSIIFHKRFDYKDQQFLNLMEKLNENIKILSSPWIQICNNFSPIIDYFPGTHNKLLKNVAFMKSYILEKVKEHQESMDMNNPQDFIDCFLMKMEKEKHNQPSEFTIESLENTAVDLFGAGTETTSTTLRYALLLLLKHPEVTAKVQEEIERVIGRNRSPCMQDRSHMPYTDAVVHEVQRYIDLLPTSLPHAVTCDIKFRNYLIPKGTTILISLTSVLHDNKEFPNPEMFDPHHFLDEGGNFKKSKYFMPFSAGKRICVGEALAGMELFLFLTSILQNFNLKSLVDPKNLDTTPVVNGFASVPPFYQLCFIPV

human CYP2C19 [4] = molecular target: T3, human CYP2C19 (Homo sapiens, UniProt P33261); experiment: biochemical; conditions: for AC50: CYP2C19 AC50 (half-maximal activity concentration)
T3 sequence (P33261 whole entry): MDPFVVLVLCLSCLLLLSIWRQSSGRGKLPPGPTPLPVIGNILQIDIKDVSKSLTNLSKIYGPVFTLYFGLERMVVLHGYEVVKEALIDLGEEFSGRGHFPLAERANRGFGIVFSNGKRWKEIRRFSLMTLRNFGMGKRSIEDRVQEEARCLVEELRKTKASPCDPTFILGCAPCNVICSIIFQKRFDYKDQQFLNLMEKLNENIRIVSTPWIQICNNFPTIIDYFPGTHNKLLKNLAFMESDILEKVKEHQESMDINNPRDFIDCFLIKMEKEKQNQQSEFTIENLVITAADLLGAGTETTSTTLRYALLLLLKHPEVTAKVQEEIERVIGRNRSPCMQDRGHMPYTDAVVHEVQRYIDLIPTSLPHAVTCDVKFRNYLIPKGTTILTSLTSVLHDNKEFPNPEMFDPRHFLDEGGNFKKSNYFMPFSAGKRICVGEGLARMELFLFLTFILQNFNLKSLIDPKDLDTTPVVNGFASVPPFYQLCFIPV

human CYP2D6 = human CYP2D6 (Homo sapiens, UniProt P10635); experiment: biochemical; conditions: for AC50: CYP2D6 AC50 (half-maximal activity concentration)
Sequence of human CYP2D6 (P10635 whole entry): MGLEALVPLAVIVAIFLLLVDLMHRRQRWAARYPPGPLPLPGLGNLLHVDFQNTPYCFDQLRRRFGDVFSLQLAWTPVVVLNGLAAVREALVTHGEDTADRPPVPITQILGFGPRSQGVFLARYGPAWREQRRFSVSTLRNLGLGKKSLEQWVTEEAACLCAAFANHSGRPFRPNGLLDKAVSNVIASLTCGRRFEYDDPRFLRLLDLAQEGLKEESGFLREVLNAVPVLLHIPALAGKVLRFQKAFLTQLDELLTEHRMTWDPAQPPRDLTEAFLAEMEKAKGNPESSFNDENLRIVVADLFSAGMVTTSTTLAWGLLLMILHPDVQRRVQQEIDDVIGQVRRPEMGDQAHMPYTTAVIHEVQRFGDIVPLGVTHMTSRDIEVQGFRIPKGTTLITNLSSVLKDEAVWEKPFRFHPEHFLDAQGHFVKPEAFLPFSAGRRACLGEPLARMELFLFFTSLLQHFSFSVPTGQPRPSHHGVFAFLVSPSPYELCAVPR

human CYP1A2 [5] = molecular target: T1, human CYP1A2
human CYP2C9 [6] = molecular target: T2, human CYP2C9
human CYP2C19 [7] = molecular target: T3, human CYP2C19
[8] = CYP1A2 IC50 (half-maximal inhibitory concentration)
[9] = CYP2C9 IC50 (half-maximal inhibitory concentration)
[10] = CYP2C19 IC50 (half-maximal inhibitory concentration)
[11] = CYP2D6 IC50 (half-maximal inhibitory concentration)

Sequence of Photinus pyralis (firefly) luciferase (P08659 whole entry): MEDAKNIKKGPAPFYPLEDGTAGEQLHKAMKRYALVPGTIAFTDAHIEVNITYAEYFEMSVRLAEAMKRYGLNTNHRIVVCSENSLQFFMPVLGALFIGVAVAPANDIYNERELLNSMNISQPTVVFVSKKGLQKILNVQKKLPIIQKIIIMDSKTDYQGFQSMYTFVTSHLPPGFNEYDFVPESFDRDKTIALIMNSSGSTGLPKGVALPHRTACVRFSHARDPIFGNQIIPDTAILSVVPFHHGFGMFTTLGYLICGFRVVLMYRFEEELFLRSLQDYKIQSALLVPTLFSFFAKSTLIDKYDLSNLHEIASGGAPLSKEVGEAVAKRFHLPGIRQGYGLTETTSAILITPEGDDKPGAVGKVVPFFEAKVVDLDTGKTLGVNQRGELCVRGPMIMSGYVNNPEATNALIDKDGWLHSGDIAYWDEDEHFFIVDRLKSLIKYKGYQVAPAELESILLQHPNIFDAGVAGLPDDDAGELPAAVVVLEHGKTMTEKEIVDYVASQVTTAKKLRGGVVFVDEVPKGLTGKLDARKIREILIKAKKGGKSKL

| Compound | Luciferase IC50 [1] | CYP1A2 IC50 (human CYP1A2 [5]) | IC50 (human CYP2C19 [4]; CYP2C19 IC50) | IC50 (human CYP2D6; CYP2D6 IC50) | IC50 (human CYP2C9 [3]; CYP2C9 IC50) | other results |
| --- | --- | --- | --- | --- | --- | --- |
| Nc1ccc(C(=O)N2CC3CC(CN(Cc4ccccc4)C3)C2)cc1 [Ambasilide] | Inactive | – | – | – | – | IC50 (human CYP1A2 [2]): 30.9 µM; IC50 (human CYP2C9 [3]): 22.7 µM; IC50 (human CYP2C19 [4]): 30 µM; IC50 (human CYP2D6): 20.1 µM |
| CCN(CC)CCOC(=O)C(C)(c1ccccc1)c1ccccc1 [Aprofene] | Inactive | Inactive | 12.3 µM | – | – | IC50 (human CYP2C9 [3]): 12.9 µM; IC50 (human CYP2D6): 1.57 µM |
| CCC1(c2cnc[nH]2)Cc2ccccc2C1 [Atipamezole] | Inactive | – | – | – | – | IC50 (human CYP1A2 [2]): 11 ± 2.84 µM; IC50 (human CYP2C9 [3]): 1.21 ± 0.3 µM; IC50 (human CYP2C19 [4]): 1.42 ± 0.4 µM; IC50 (human CYP2D6): 0.87 ± 0.1 µM |
| CC(CC1c2ccccc2CCc2ccccc21)CN(C)C (stereo not drawn) [Butriptyline] | – | Inactive | 8.39 µM | 0.97 µM | – | IC50 [1]: 8.71 µM; CYP2C9 IC50 (human CYP2C9 [6]): Inactive |
| Nc1ccc2c(c1)CN1C(=O)c3ccccc3C1=N2 [Daniquidone] | – | – | – | – | – | IC50 [1]: 0.36 µM; IC50 (human CYP1A2 [2]; [8]): 0.67 µM; IC50 (human CYP2C9 [3]; [9]): 5.05 µM; IC50 (human CYP2C19 [4]; [10]): 2.8 µM; IC50 (human CYP2D6; [11]): 4.39 µM |
| CN(C)[C@@H](CCOc1cccc2ccccc12)c1ccccc1 [Dapoxetine] | Inactive | – | – | – | – | IC50 (human CYP1A2 [2]): 5.87 ± 1.73 µM; IC50 (human CYP2C9 [3]): 16.8 ± 2.32 µM; IC50 (human CYP2C19 [4]): 1.21 ± 0.3 µM; IC50 (human CYP2D6): 0.98 ± 0.11 µM |
| Cc1cccc(Cc2c[nH]cn2)c1C [Detomidine hydrochloride] | Inactive | – | 1.96 µM | 2.37 µM | 0.41 µM | IC50 (human CYP1A2 [2]; CYP1A2 IC50): 1.15 µM |
| COc1ccc([C@@H]2Sc3ccccc3N(CCN(C)C)C(=O)[C@@H]2OC(C)=O)cc1 [Diltiazem] | – | – | – | – | – | Luciferase IC50 (half-maximal inhibitory concentration) [1]: Inactive; CYP1A2 IC50 (half-maximal inhibitory concentration) (human CYP1A2 [5]): Inactive; CYP2C9 IC50 (half-maximal inhibitory concentration) (human CYP2C9 [6]): Inactive; CYP2C19 IC50 (half-maximal inhibitory concentration) (human CYP2C19 [7]): Inactive; IC50 (human CYP2D6; [11]): 19.1 µM |
| [O-][n+]1ccccc1SSc1cccc[n+]1[O-] [Dipyrithione] | – | – | 0.79 µM | 1.66 µM | 1.72 µM | IC50 [1]: 0.45 µM; AC50 (human CYP1A2 [2]; CYP1A2 AC50 (half-maximal activity concentration)): 3.2 µM; IC50 (human CYP1A2 [2]; CYP1A2 IC50): 3.2 µM; AC50 (human CYP2C9 [3]; CYP2C9 AC50 (half-maximal activity concentration)): 1.72 µM; AC50 (human CYP2C19 [4]): 0.79 µM; AC50 (human CYP2D6): 1.66 µM |
| CC1=C(C)C(=O)C(CCCCC#CCCCC#CCO)=C(C)C1=O [Docebenone] | Inactive | – | 11.4 µM | 25.8 µM | 5.22 µM | IC50 (human CYP1A2 [2]; CYP1A2 IC50): 3.27 µM |
| CCN(CC)CCOC(=O)C(c1ccccc1)C1CCCCC1 (stereo not drawn) [Drofenine hydrochloride] | Inactive | – | 18.8 µM | 1.19 µM | 26 µM | IC50 (human CYP1A2 [2]; CYP1A2 IC50): 5.85 µM |
| CN1C[C@H](C(=O)N[C@]2(C)O[C@@]3(O)[C@@H]4CCCN4C(=O)[C@H](Cc4ccccc4)N3C2=O)C=C2c3cccc4[nH]cc(c34)C[C@H]21 [Ergotamine D-tartrate] | – | – | – | – | – | IC50 [1]: 42.1 µM; IC50 (human CYP1A2 [2]; [8]): 22.6 µM; IC50 (human CYP2C9 [3]; [9]): 16.5 µM; IC50 (human CYP2C19 [4]; [10]): 37.4 µM; IC50 (human CYP2D6; [11]): 31.3 µM |
| CC[n+]1c(-c2ccccc2)c2cc(N)ccc2c2ccc(N)cc21 [Ethidium bromide] | Inactive | – | 13.1 µM | 0.93 µM | 47.7 µM | IC50 (human CYP1A2 [2]; CYP1A2 IC50): 9.62 µM |
| CCCCCCCCCCCCCCCC[N+](C)(C)CC [Ethylhexadecyldimethylammonium bromide] | Inactive | – | – | – | – | IC50 (human CYP1A2 [2]): 74.4 ± 9.49 µM; IC50 (human CYP2C9 [3]): 83.1 ± 5.63 µM; IC50 (human CYP2C19 [4]): 89.6 µM; IC50 (human CYP2D6): 0.61 ± 0.04 µM |
| CN(C)c1ccc(N=NS(=O)(=O)O)cc1 [Fenaminosulf] | – | – | – | – | – | IC50 [1]: 44.1 µM; IC50 (human CYP1A2 [2]): 5.75 µM; IC50 (human CYP2C9 [3]): 7.38 µM; IC50 (human CYP2C19 [4]): 1.36 µM; IC50 (human CYP2D6): 12.2 µM |
| CC(NCCC(c1ccccc1)c1ccccc1)c1ccccc1 (stereo not drawn) [Fendiline hydrochloride] | Inactive | Inactive | 5.65 µM | 0.23 µM | 15.5 µM | – |
| COP(=S)(OC)Oc1ccc(SC)c(C)c1 [Fenthion] | – | – | 0.91 µM | – | – | IC50 [1]: 44.8 µM; IC50 (human CYP1A2 [2]; CYP1A2 IC50): 2.53 µM; IC50 (human CYP2C9 [3]): 6.1 µM; IC50 (human CYP2D6): 37.2 µM |
| O=c1cc(-c2ccccc2)oc2ccccc12 [Flavone] | – | – | – | – | – | IC50 [1]: 21.6 µM; IC50 (human CYP1A2 [2]): 0.26 µM; IC50 (human CYP2C9 [3]): 14.6 µM; IC50 (human CYP2C19 [4]): 23.2 ± 7.47 µM; IC50 (human CYP2D6): 62.5 ± 38.1 µM |
| CCCCC(CC)CN1CN(CC(CC)CCCC)CC(C)(N)C1 (stereo not drawn) [Hexetidine] | Inactive | Inactive | – | 0.48 µM | – | CYP2C9 IC50 (human CYP2C9 [6]): Inactive; CYP2C19 IC50 (human CYP2C19 [7]): Inactive |
| CN1CCCN(C(c2ccccc2)c2ccc(Cl)cc2)CC1 (stereo not drawn) [Homochlorcyclizine] | Inactive | Inactive | 26.3 µM | 0.38 µM | – | CYP2C9 IC50 (human CYP2C9 [6]): Inactive |
| CCOC(=O)CC(SP(=S)(OC)OC)C(=O)OCC (stereo not drawn) [Malathion] | – | – | 0.54 µM | 58.1 µM | 1.78 µM | IC50 [1]: 37 µM; IC50 (human CYP1A2 [2]; CYP1A2 IC50): 2.12 µM |
| Cc1cc(O)c2ccccc2c1O [Menadiol] | Inactive | – | 13.4 µM | 19.3 µM | 12.2 µM | IC50 (human CYP1A2 [2]; CYP1A2 IC50): 0.8 µM |
| COCC(=O)O[C@]1(CCN(C)CCCc2nc3ccccc3[nH]2)CCc2cc(F)ccc2[C@@H]1C(C)C [Mibefradil dihydrochloride] | Inactive | Inactive | – | 0.53 µM | – | CYP2C9 IC50 (human CYP2C9 [6]): Inactive; IC50 (human CYP2C19 [4]): 38.9 µM |
| Cc1ccc(N(CC2=NCCN2)c2cccc(O)c2)cc1 [Phentolamine mesilate] | Inactive | Inactive | 14.6 µM | 0.65 µM | – | CYP2C9 IC50 (human CYP2C9 [6]): Inactive |
| CN1CCC(=C2c3ccccc3CCc3sccc32)CC1 [Pizotifen] | Inactive | Inactive | 8.71 µM | 0.96 µM | – | CYP2C9 IC50 (human CYP2C9 [6]): Inactive; AC50 (human CYP2C19 [4]): 8.71 µM; AC50 (human CYP2D6): 0.96 µM |
| CCCC(C(=O)OCCN(CC)CC)(c1ccccc1)c1ccccc1 [Proadifen hydrochloride] | Inactive | Inactive | 19.1 µM | 0.2 µM | 12.1 µM | – |
| O=C1NCN(c2ccccc2)C12CCN(CC1COc3ccccc3O1)CC2 (stereo not drawn) [Spiroxatrine] | Inactive | Inactive | 8.64 µM | 0.19 µM | 10.8 µM | – |
| CN1CCC(N(Cc2cccs2)c2ccccc2)CC1 [Thenalidine] | Inactive | Inactive | 36.8 µM | 0.53 µM | – | CYP2C9 IC50 (human CYP2C9 [6]): Inactive; AC50 (human CYP2D6): 0.53 µM |
